For experiment [1], the system named is rabbit serum obtained by immunizing a rabbit with the SARS-CoV strain Frankfurt 1. Type of experiment: binding. More on the design: Binding of a rabbit serum to linear peptides / Binding of a rabbit serum to looped peptides / Rabbit serum linear peptides / Rabbit serum looped peptides / Binding of a rabbit serum to linear peptides of protein N of SARS-CoV Urbani (Rabbit serum linear peptides) / Binding of a rabbit serum to looped/cyclic peptides of protein N of SARS-CoV Urbani (Rabbit serum looped peptides): unit not given here.

Experiment [2] deals with antibodies in sera from SARS patients (sera 1a, 1b, 2, 6, 37, 62, London, SARS-yellow, SARS-green). The experiment is classed as binding, human. More on the design: Binding of serum 6 to linear peptides of protein X1 of SARS-CoV Urbani / Binding of serum 37 to linear peptides of protein X1 of SARS-CoV Urbani / Binding of serum 6 to looped/cyclic peptide (PEPSCAN-ELISA) / Binding of serum 37 to looped/cyclic peptide (PEPSCAN-ELISA) / Binding of serum 37 to looped/cyclic peptides of protein X1 of SARS-CoV Urbani / Binding of serum 6 to linear peptides of protein X2 / Binding of serum 37 to linear peptides of protein X2 / Binding of serum 37 to looped/cyclic peptides of protein X2 of SARS-CoV Urbani / Binding of serum 6 to linear peptides of protein M of SARS-CoV Urbani / Binding of serum 37 to linear peptides of protein M of SARS-CoV Urbani / Binding of serum 6 to looped/cyclic peptides of protein M of SARS-CoV Urbani / Binding of serum 37 to looped/cyclic peptides of protein M of SARS-CoV Urbani / Binding of serum 6 to linear peptides of protein X3 of SARS-CoV Urbani / Binding of serum 37 to linear peptides of protein X3 of SARS-CoV Urbani / Binding of serum 37 to looped/cyclic peptides of protein X3 of SARS-CoV Urbani / Binding of serum 6 to linear peptides of protein X4 of SARS-CoV Urbani / Binding of serum 37 to linear peptides of protein X4 of SARS-CoV Urbani / Binding of serum 37 to looped/cyclic peptides of protein X4 of SARS-CoV Urbani / Binding of serum 6 to linear peptides of protein X5 of SARS-CoV Urbani / Binding of serum 37 to linear peptides of protein X5 of SARS-CoV Urbani / Binding of serum 37 to looped/cyclic peptides of protein X5 of SARS-CoV Urbani / Binding of serum 6 to linear peptides of protein N of SARS-CoV Urbani / Binding of serum 37 to linear peptides of protein N of SARS-CoV Urbani / Binding of serum 6 to linear peptide (PEPSCAN-ELISA) / Binding of serum 1a to looped/cyclic peptides of protein N of SARS-CoV Urbani / Binding of serum 1b to looped/cyclic peptides of protein N of SARS-CoV Urbani / Binding of serum 2 to looped/cyclic peptides of protein N of SARS-CoV Urbani / Binding of serum 6 to looped/cyclic peptides of protein N of SARS-CoV Urbani / Binding of serum 37 to looped/cyclic peptides of protein N of SARS-CoV Urbani / Binding of serum 62 to looped/cyclic peptides of protein N of SARS-CoV Urbani / Binding of serum London to looped/cyclic peptides of protein N of SARS-CoV Urbani / Binding of serum SARS-green to looped/cyclic peptides of protein N of SARS-CoV Urbani: unit not given here.

For experiment [3], the system named is control sera (pooled serum of ten healthy LUMC hospital workers; commercial negative donor pooled serum from the Dutch bloodbank). The experiment is classed as binding, human. More on the design: Binding of Control serum LUMC to linear peptides / Binding of Control serum Blood-bank to linear peptides / Binding of Control serum LUMC to looped peptides / Binding of Control Serum Blood-Bank to Looped peptides / Binding of Control serum LUMC to linear peptides of the protein M of SARS-CoV Urbani / Binding of Control serum Blood-bank to linear peptides of the protein M of SARS-CoV Urbani / Binding of Control serum LUMC to looped peptides of the protein M of SARS-CoV Urbani / Binding of Control Serum Blood-Bank to Looped peptides of the protein M of SARS-CoV Urbani: unit not given here.

Consider VHGYFTEVYYQLEST, for which, in experiment [1], the “Binding of a rabbit serum to linear peptides” value was 0.1 and the “Binding of a rabbit serum to looped peptides” value is reported as 0.6. For the same sequence, in experiment [2], the “Binding of serum 1a to linear peptides of protein X1 of SARS-CoV Urbani” value worked out at 0.7, the “Binding of serum 1a to looped/cyclic peptides of protein X1 of SARS-CoV Urbani” value was 0.5, the “Binding of serum 1b to linear peptides of protein X1 of SARS-CoV Urbani” value amounted to 0.5 and the “Binding of serum 1b to looped/cyclic peptides of protein X1 of SARS-CoV Urbani” value was found to be 0.4. In experiment [2], the “Binding of serum 2 to linear peptides of protein X1 of SARS-CoV Urbani” value was determined as 0.4, the “Binding of serum 2 to looped/cyclic peptides of protein X1 of SARS-CoV Urbani” value turned out to be 0.5, the “Binding of serum 6 to linear peptides of protein X1 of SARS-CoV Urbani” value worked out at 0.4 and the “Binding of serum 6 to looped/cyclic peptides of protein X1 of SARS-CoV Urbani” value came out at 0.3. Besides, in experiment [2], the “Binding of serum 37 to linear peptides of protein X1 of SARS-CoV Urbani” value was 0.4, the “Binding of serum 37 to looped/cyclic peptides of protein X1 of SARS-CoV Urbani” value was 0.5, the “Binding of serum 62 to linear peptides of protein X1 of SARS-CoV Urbani” value stood at 0.3 and the “Binding of serum 62 to looped/cyclic peptides of protein X1 of SARS-CoV Urbani” value is reported as 0.6. For the same sequence, in experiment [2], the “Binding of serum London to linear peptides of protein X1 of SARS-CoV Urbani” value amounted to 0.2, the “Binding of serum London to looped/cyclic peptides of protein X1 of SARS-CoV Urbani” value turned out to be 0.2, the “Binding of serum SARS-green to linear peptides of protein X1 of SARS-CoV Urbani” value was found to be 0.1 and the “Binding of serum SARS-green to looped/cyclic peptides of protein X1 of SARS-CoV Urbani” value amounted to 0.3. Moreover, in experiment [2], the “Binding of serum SARS-yellow to linear peptides of protein X1 of SARS-CoV Urbani” value is 0.3 and the “Binding of serum SARS-yellow to looped/cyclic peptides of protein X1 of SARS-CoV Urbani” value was found to be 0.5. Moreover, in experiment [3], the “Binding of Control Serum Blood-Bank to Looped peptides” value is given as 0.5, the “Binding of Control serum Blood-bank to linear peptides” value is 0.4, the “Binding of Control serum LUMC to linear peptides” value worked out at 0.5 and the “Binding of Control serum LUMC to looped peptides” value amounted to 0.7.

Take VILRIGTQVLKTMSL: in experiment [1], the “Binding of a rabbit serum to linear peptides” value is given as 0.3 and the “Binding of a rabbit serum to looped peptides” value worked out at 0.5. In experiment [2], the “Binding of serum 1a to linear peptides of protein X2” value amounted to 0.6, the “Binding of serum 1a to looped/cyclic peptides of protein X2 of SARS-CoV Urbani” value is 0.6, the “Binding of serum 1b to linear peptides of protein X2” value was found to be 0.5 and the “Binding of serum 1b to looped/cyclic peptides of protein X2 of SARS-CoV Urbani” value came out at 0.6. In experiment [2], the “Binding of serum 2 to linear peptides of protein X2” value is 0.5, the “Binding of serum 2 to looped/cyclic peptides of protein X2 of SARS-CoV Urbani” value came out at 0.4, the “Binding of serum 6 to linear peptides of protein X2” value is on record as 0.5 and the “Binding of serum 6 to looped/cyclic peptides of protein X2 of SARS-CoV Urbani” value was determined as 0.5. In addition, in experiment [2], the “Binding of serum 37 to linear peptides of protein X2” value is given as 0.6, the “Binding of serum 37 to looped/cyclic peptides of protein X2 of SARS-CoV Urbani” value was 0.5, the “Binding of serum 62 to linear peptides of protein X2” value turned out to be 0.6 and the “Binding of serum 62 to looped/cyclic peptides of protein X2 of SARS-CoV Urbani” value was determined as 0.7. Moreover, in experiment [2], the “Binding of serum London to linear peptides of protein X2” value is 0.4, the “Binding of serum London to looped/cyclic peptides of protein X2 of SARS-CoV Urbani” value is recorded as 0.2, the “Binding of serum SARS-green to linear peptides of protein X2” value is given as 0.4 and the “Binding of serum SARS-green to looped/cyclic peptides of protein X2 of SARS-CoV Urbani” value was 0.3. Further, in experiment [2], the “Binding of serum SARS-yellow to linear peptides of protein X2” value is reported as 0.4 and the “Binding of serum SARS-yellow to looped/cyclic peptides of protein X2 of SARS-CoV Urbani” value is recorded as 0.4. Also, in experiment [3], the “Binding of Control Serum Blood-Bank to Looped peptides” value amounted to 0.7, the “Binding of Control serum Blood-bank to linear peptides” value came out at 0.8, the “Binding of Control serum LUMC to linear peptides” value is 0.5 and the “Binding of Control serum LUMC to looped peptides” value amounted to 0.7.

Regarding VLLKEPCPSGTYEGN, in experiment [1], the “Rabbit serum linear peptides” value is recorded as 0.4 and the “Rabbit serum looped peptides” value is listed as 0.3. For the same sequence, in experiment [2], the “Binding of serum 1a to linear peptides of protein X4 of SARS-CoV Urbani” value is recorded as 0.8, the “Binding of serum 1a to looped/cyclic peptides of protein X4 of SARS-CoV Urbani” value was 0.8, the “Binding of serum 1b to linear peptides of protein X4 of SARS-CoV Urbani” value is given as 0.7 and the “Binding of serum 1b to looped/cyclic peptides of protein X4 of SARS-CoV Urbani” value is 0.7. In experiment [2], the “Binding of serum 2 to linear peptides of protein X4 of SARS-CoV Urbani” value came out at 0.4, the “Binding of serum 2 to looped/cyclic peptides of protein X4 of SARS-CoV Urbani” value was found to be 0.6, the “Binding of serum 6 to linear peptides of protein X4 of SARS-CoV Urbani” value is 0.7 and the “Binding of serum 6 to looped/cyclic peptides of protein X4 of SARS-CoV Urbani” value was determined as 0.7. Also, in experiment [2], the “Binding of serum 37 to linear peptides of protein X4 of SARS-CoV Urbani” value came out at 0.7, the “Binding of serum 37 to looped/cyclic peptides of protein X4 of SARS-CoV Urbani” value is recorded as 0.8, the “Binding of serum 62 to linear peptides of protein X4 of SARS-CoV Urbani” value is reported as 0.8 and the “Binding of serum 62 to looped/cyclic peptides of protein X4 of SARS-CoV Urbani” value came to 0.7. For the same sequence, in experiment [2], the “Binding of serum London to linear peptides of protein X4 of SARS-CoV Urbani” value worked out at 0.8, the “Binding of serum London to looped/cyclic peptides of protein X4 of SARS-CoV Urbani” value came out at 0.3, the “Binding of serum SARS-green to linear peptides of protein X4 of SARS-CoV Urbani” value is given as 0.6 and the “Binding of serum SARS-green to looped/cyclic peptides of protein X4 of SARS-CoV Urbani” value came to 0.5. Further, in experiment [2], the “Binding of serum SARS-yellow to linear peptides of protein X4 of SARS-CoV Urbani” value is listed as 0.1 and the “Binding of serum SARS-yellow to looped/cyclic peptides of protein X4 of SARS-CoV Urbani” value is 0.4. Also, in experiment [3], the “Binding of Control Serum Blood-Bank to Looped peptides” value is recorded as 0.9, the “Binding of Control serum Blood-bank to linear peptides” value was 0.8, the “Binding of Control serum LUMC to linear peptides” value was 0.7 and the “Binding of Control serum LUMC to looped peptides” value came out at 0.8.

Turning to VLPFHRWHTMVQTCT, in experiment [1], the “Rabbit serum linear peptides” value is listed as 0.6 and the “Rabbit serum looped peptides” value is given as 0.0. In experiment [2], the “Binding of serum 1a to linear peptides of protein X5 of SARS-CoV Urbani” value turned out to be 0.8, the “Binding of serum 1a to looped/cyclic peptides of protein X5 of SARS-CoV Urbani” value was 0.7, the “Binding of serum 1b to linear peptides of protein X5 of SARS-CoV Urbani” value came to 0.6 and the “Binding of serum 1b to looped/cyclic peptides of protein X5 of SARS-CoV Urbani” value was found to be 0.5. Besides, in experiment [2], the “Binding of serum 2 to linear peptides of protein X5 of SARS-CoV Urbani” value was determined as 0.7, the “Binding of serum 2 to looped/cyclic peptides of protein X5 of SARS-CoV Urbani” value worked out at 0.7, the “Binding of serum 6 to linear peptides of protein X5 of SARS-CoV Urbani” value amounted to 0.5 and the “Binding of serum 6 to looped/cyclic peptides of protein X5 of SARS-CoV Urbani” value is on record as 0.4. Besides, in experiment [2], the “Binding of serum 37 to linear peptides of protein X5 of SARS-CoV Urbani” value worked out at 0.7, the “Binding of serum 37 to looped/cyclic peptides of protein X5 of SARS-CoV Urbani” value is 0.5, the “Binding of serum 62 to linear peptides of protein X5 of SARS-CoV Urbani” value is on record as 0.7 and the “Binding of serum 62 to looped/cyclic peptides of protein X5 of SARS-CoV Urbani” value came out at 0.3. In experiment [2], the “Binding of serum London to linear peptides of protein X5 of SARS-CoV Urbani” value is 0.8, the “Binding of serum London to looped/cyclic peptides of protein X5 of SARS-CoV Urbani” value is on record as 0.2, the “Binding of serum SARS-green to linear peptides of protein X5 of SARS-CoV Urbani” value is listed as 0.6 and the “Binding of serum SARS-green to looped/cyclic peptides of protein X5 of SARS-CoV Urbani” value is given as 1.4. Moreover, in experiment [2], the “Binding of serum SARS-yellow to linear peptides of protein X5 of SARS-CoV Urbani” value is on record as 0.4 and the “Binding of serum SARS-yellow to looped/cyclic peptides of protein X5 of SARS-CoV Urbani” value is on record as 0.3. Moreover, in experiment [3], the “Binding of Control Serum Blood-Bank to Looped peptides” value amounted to 0.6, the “Binding of Control serum Blood-bank to linear peptides” value amounted to 0.6, the “Binding of Control serum LUMC to linear peptides” value is reported as 0.5 and the “Binding of Control serum LUMC to looped peptides” value stood at 0.0.

The record behind these values is patent US20070128217A1 (priority 2003, published 2007).
